Series [1] relates to male ICR mice. Kind of series: MK-801-induced hyperactivity in mice. It counts as in vivo. The following applies: single oral dose. How it is done: Immediately after injection with either saline or MK-801 (0.3 mg/kg, i.p.), the mice were placed into the test chambers (29 cm × 29 cm × 30 cm) for 60 min of locomotion recording using a tracking and computerized analysis system (TopScan Version 3.00, Clever Sys Inc., Leesburg, VA).

Series [2] concerns male ICR mice. The conditions noted are these: p.o.
Another series is described as follows: in vivo. The following applies: male, ICR, mouse, po.
The subject of another series is male Wistar rats. Kind of series: Conditioned avoidance response test in rats. In kind it is in vivo. The following applies: Rattus norvegicus, single oral dose, read-out: ED50, inhibition of conditioned avoidance response. An excerpt:
Shuttle-box Avoidance Test Video Analysis System (DigBehv-SBG, Shanghai Jiliang Software Technology Co. Ltd.) were used to assess the rats conditioned avoidance response.
Phase I: The rats responded to the conditioned stimulus (auditory and visual) by training with foot shock reinforcement. Briefly, rats were placed into the CAR shuttle boxes for a 5-min habituation followed by 30 trials presented on a 20-s variable interval (20–30 s) stimulus. Each rats were subjected to a conditioned stimulus which consisted of 10s presentation of light and white noise, and then followed by a scrambled 1.5 mA foot shock for 10 s. […] Rats with avoidance rates greater than 70% for 3 consecutive days were included in this study post-training.
Phase II: The qualified rats were randomly divided into 7 groups. […] The procedure in the testing phase was the same as the Phase I described. The number of avoidances, escapes, and escape failures were recorded.

A further series concerns the target 5-HT1B receptor (Homo sapiens, UniProt P28222). Kind of series: 5-HT1B receptor functional assay (cAMP assay, inverse agonist). It counts as cell-based. The following applies: inverse agonist activity, CHO-K1/5-HT1B cells, read-out: 5HT1BR, EC50. In general terms: Changes in cAMP serve as a functional read-out for many G protein-coupled receptors.
The next series has as its target D2S receptor (Homo sapiens, UniProt P14416). Kind of series: D2S receptor functional assay (cAMP assay, antagonist). In kind it is cell-based. The following applies: antagonist activity, CHO-K1/D2 cells, read-out: D2SR, IC50.
For series [3], the system named is male ICR mice. Kind of series: APO-induced climbing in mice.
The target in a further series is T1, 5-HT2C receptor (Homo sapiens, UniProt P28335).
T1 sequence (P28335 33-458): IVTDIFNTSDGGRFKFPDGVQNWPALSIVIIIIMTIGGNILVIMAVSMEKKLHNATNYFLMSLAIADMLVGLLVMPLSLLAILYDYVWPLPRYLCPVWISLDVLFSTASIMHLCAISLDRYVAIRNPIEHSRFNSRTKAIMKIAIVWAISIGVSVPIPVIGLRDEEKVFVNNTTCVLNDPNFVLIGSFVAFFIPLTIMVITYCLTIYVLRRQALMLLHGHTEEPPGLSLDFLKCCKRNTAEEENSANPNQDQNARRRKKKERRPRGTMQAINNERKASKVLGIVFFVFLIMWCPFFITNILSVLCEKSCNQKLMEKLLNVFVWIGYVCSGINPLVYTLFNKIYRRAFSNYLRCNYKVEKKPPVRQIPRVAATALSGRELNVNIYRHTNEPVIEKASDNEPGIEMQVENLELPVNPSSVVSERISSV
Kind of series: 5-HT2C receptor functional assay (calcium flow, FLIPR). In kind it is cell-based. The conditions noted are these: HEK293/5-HT2C cells, read-out: 5HT2cR, IC50.

The target in the next series is T2, 5-HT7 receptor (Homo sapiens, UniProt P34969).
T2 construct: host or cells: HEK293/5-HT7
Nature of the series: 5-HT7 receptor functional assay (Bright-Glo Luciferase assay system). It counts as cell-based. The conditions noted are these: HEK293/5-HT7 cells, read-out: 5HT7R, IC50.

For series [4], the system named is male ICR mice. Kind of series: DOI-induced head twitch in mice.
Another series addresses T3, Alpha1A receptor (Homo sapiens, UniProt P35348).
T3 construct: expressed in transfected cells; host or cells: HEK293/Alpha1A (constructed by Shanghai shujing Biopharma)
T3 sequence (P35348 1-466): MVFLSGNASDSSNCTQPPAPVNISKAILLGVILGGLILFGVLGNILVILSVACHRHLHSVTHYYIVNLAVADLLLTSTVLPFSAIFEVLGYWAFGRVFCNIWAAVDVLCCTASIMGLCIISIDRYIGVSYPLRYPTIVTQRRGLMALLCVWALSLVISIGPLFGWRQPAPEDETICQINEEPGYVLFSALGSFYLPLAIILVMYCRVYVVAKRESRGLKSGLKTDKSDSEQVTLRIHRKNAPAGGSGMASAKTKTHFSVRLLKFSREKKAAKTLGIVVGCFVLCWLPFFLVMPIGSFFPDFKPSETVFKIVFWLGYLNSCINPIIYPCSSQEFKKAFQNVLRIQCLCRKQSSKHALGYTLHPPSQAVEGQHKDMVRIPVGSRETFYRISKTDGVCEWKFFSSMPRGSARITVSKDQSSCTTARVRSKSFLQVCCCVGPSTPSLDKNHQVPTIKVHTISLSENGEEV
Kind of series: Alpha1A receptor functional assay (calcium flow, FLIPR). It counts as cell-based. The following applies: HEK293/Alpha1A cells, read-out: Alpha1AR, IC50.

Setting [5] is: single oral dose, male ICR mice.

SMILES strings stand for the structures.

Sequence of 5-HT1B receptor (P28222 whole entry): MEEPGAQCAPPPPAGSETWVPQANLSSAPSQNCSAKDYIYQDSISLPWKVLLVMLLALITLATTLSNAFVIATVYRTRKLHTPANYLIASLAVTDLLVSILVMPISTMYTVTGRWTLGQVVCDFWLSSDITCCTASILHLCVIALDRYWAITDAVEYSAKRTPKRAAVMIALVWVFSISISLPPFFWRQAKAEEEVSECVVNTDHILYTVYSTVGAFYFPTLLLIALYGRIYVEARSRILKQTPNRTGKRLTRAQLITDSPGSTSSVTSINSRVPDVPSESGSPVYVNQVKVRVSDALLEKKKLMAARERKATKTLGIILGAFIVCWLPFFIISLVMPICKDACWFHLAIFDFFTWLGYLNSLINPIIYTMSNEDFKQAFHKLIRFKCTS
Sequence of D2S receptor (P14416 1-414 isoform P14416-2): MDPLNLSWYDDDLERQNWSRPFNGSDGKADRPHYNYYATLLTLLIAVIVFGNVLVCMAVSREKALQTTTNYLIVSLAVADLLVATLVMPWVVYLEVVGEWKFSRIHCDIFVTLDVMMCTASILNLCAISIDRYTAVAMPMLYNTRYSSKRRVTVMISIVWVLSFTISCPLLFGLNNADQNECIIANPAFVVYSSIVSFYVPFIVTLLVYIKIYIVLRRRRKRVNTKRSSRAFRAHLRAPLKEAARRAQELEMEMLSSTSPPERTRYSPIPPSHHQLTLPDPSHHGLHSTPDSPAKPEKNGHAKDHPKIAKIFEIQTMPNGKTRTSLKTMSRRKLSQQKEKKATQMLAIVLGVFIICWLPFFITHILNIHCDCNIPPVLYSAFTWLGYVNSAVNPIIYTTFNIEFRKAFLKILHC
T2 sequence (P34969 whole entry): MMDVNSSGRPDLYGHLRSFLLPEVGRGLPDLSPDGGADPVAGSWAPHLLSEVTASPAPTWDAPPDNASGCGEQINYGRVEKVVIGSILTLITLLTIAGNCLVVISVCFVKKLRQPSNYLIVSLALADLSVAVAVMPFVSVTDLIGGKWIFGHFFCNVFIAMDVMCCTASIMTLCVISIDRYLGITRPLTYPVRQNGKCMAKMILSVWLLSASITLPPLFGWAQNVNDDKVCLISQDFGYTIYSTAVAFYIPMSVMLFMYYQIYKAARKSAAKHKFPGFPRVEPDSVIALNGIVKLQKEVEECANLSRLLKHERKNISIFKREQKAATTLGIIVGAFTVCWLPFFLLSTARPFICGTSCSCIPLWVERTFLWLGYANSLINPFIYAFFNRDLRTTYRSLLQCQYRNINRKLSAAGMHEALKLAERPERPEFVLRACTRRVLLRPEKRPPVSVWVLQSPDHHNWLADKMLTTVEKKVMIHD

The EC50 is the concentration needed to bring the measured effect to its halfway point. As a reminder, the IC50 is the concentration at which inhibition is half-maximal. For the molecule `O=C1CCc2cc(OCCCN3CCC(c4noc5cc(F)ccc45)CC3)cc3c2N1CC3` [NH300094, 8-(3-(4-(6-fluorobenzo [d]isoxazol-3-yl)piperidin-1-yl)propoxy)-1,2,5,6-tetrahydro-4H-pyrrolo [3,2,1-ij] quinolin-4-one], the ED50 was around 0.07 mg/kg in the series with male ICR mice [1] (Mus musculus, MK-801 0.3 mg/kg i.p., read-out: ED50, inhibition of MK-801-induced hyperactivity); 6.73 mg/kg in “in vivo”; around 1.02 mg/kg in the series with male Wistar rats; around 0.29 mg/kg with male ICR mice [3] (Mus musculus, read-out: ED50, inhibition of APO-induced climbing); around 0.007 mg/kg in the series with male ICR mice [4] (Mus musculus, po, read-out: ED50, inhibition of DOI-induced head twitch, single oral dose, male ICR mice, DOI 1 mg/kg). Also, in the series with male ICR mice [1], the “Minimum effective dose (MED), MK-801-induced hyperactivity” value worked out at 0.03 mg/kg. Further, the “minimal dose that induced catalepsy” value in the series with male ICR mice [2] worked out at 3 mg/kg. For the same molecule, the EC50 on 5-HT1B receptor came out at 28.4 ± 12.5 nM. Further, the IC50 at D2S receptor came to 11.7 ± 9.38 nM; on 5-HT2C receptor it was 3020 nM; at 5-HT7 receptor it was 5520 nM; on Alpha1A receptor, 28.5 nM. The “MED, APO-induced climbing” value in the series with male ICR mice [3] (setting [5]) is recorded as 0.3 mg/kg. Moreover, the “MED, DOI-induced head twitch” value in the series on male ICR mice [4] (setting [5]) is given as 0.003 mg/kg.
